Data from US20260325477A1, “METHODS OF TREATMENT USING DRY POWDER COMPOSITIONS OF TREPROSTINIL PRODRUGS” (Insmed Incorporated, priority 2024, published 2026).

How the values were obtained:
[1] = Nonclinical safety and toxicology of TP; assay type: in vivo
Description: (§1) Treprostinil palmitil (TP) is a hexadecyl ester prodrug of treprostinil (TRE). In the lung, TP is hydrolyzed by esterases to TRE and hexadecanol.

[2] = system: subjects with pulmonary hypertension; test: Phase 2 safety and efficacy study in subjects with pulmonary hypertension; assay type: in vivo, human
Procedure: In a Phase 2 safety and efficacy study, the following doses of were investigated in subjects with pulmonary hypertension, including pulmonary arterial hypertension: 80 μg, 160 μg, 240 μg, 320 μg, 400 μg, 480 μg, and 640 μg. In this study, patients were administered a starting dose of 80 μg of the TPIP and the dose was titrated up to 640 μg according to FIG. 2.

[3] = Nonclinical studies of TP: conversion, delivery, PK and PD
Description: as §1

rodent model of PAH = test: Rodent model of PAH; assay type: in vivo; conditions: inhibition of associated adverse pathology and pathophysiology
Description: as §1

healthy adults = test: Phase I single-dose safety and tolerability of TPIP in healthy adults; assay type: in vivo, human; conditions: single doses 112.5, 225, 450 and 675 μg
Procedure: Specifically, in a Phase I safety, tolerability, and PK study, healthy adults were administered single doses of 112.5 μg, 225 μg, 450 μg, and 675 μg of a compound of Formula (II).

[4] = Phase I pharmacokinetics of treprostinil after inhalation of the compound of Formula (II); assay type: in vivo, human; conditions: dose range of 112.5 μg to 675 μg
Procedure: The term “Cmax” means the maximum (or peak) treprostinil serum concentration measured after a compound of Formula (I) or (II), an enantiomer or diastereomer thereof, or a pharmaceutically acceptable salt thereof is administered to the lungs of a subject via a dry powder composition described herein. In addition, Cmax may be measured after a single administration of a compound of Formula (I) or (II), an enantiomer or diastereomer thereof, or a pharmaceutically acceptable salt thereof, described herein, or treprostinil Cmax may be measured at steady state. Unless stated otherwise, Cmax refers to the average treprostinil Cmax measured after a single administration among a population of subjects (e.g., a population of PH patients).
The term “AUC” means the area under the plasma concentration time curve for treprostinil, measured from time 0 to a certain time post-administration to the lungs of a subject, calculated by a combination of linear and logarithmic trapezoidal methods (Linear up/log down method). […] In addition, treprostinil AUC may be measured after a single administration or at steady state values. Unless stated otherwise, AUC refers to the average AUC measured after a single administration among a population of subjects (e.g., a population of PH patients). […]

SMILES: CCCCCCCCCCCCCCCCOC(=O)COc1cccc2c1C[C@H]1C[C@@H](O)[C@H](CC[C@@H](O)CCCCC)[C@H]1C2 [treprostinil palmitil]
- preclinical safety or toxicological findings [1]: did not demonstrate concerning preclinical safety or toxicological findings
- tolerability ([2]; 640 μg, highest dose administered in a clinical trial): well tolerated
- tolerability ([2]; all doses, 80 μg to 640 μg): well tolerated
- efficacy ([2]; higher doses): promising efficacy
- PK and PD profile [3]: prolonged PK and PD profile
- delivery of treprostinil to the lungs and systemic circulation [3]: sustained delivery
- conversion from the prodrug to the active drug, treprostinil ([3]; in vitro and in vivo): converted from the prodrug to the active drug, treprostinil
- efficacy in a rodent model of PAH (rodent model of PAH): efficacious
- safety and tolerability (healthy adults): safe and well-tolerated
- serious or severe TEAEs (healthy adults): no serious or severe TEAEs were observed
- pharmacokinetic (PK) profile, dose linearity [4]: linear
